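Dose response: 5 concentrations. Exposure: 48 h. Format: 96-well plates. Endpoint: linear interpolation; highest concentration if not reached. Here, GI50 denotes the concentration required for 50% inhibition of growth.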 Activity calls are given as the source filed them. No stated cut-off is given here; in the data, active = GI50 up to about 1.1 µM and inactive = higher.
Key:
Test in all cases: NCI tumour cell line growth inhibition, 48 h
[1] = test system: 786-0
[2] = test system: A498
[3] = test system: A549
[4] = test system: CCRF-CEM
[5] = test system: HCT-116
[6] = test system: KM12
[7] = test system: MOLT-4
[8] = test system: OVCAR-3
[9] = test system: SF-295
[10] = test system: SF-539
[11] = test system: SK-OV-3
[12] = test system: SNB-19
[13] = test system: SNB-75
[14] = test system: SW-620
[15] = test system: TK-10
[16] = test system: UACC-62
[17] = test system: NCI-H226

Measured: GI50

NC1C2(CCCCCC2)NC(=O)C12CCCCCC2 (stereo not given)
inactive: [1] > 100 µM | [2] > 100 µM | [3] > 100 µM | [4] > 100 µM | [5] > 100 µM | [6] > 100 µM | [7] > 100 µM | [8] > 100 µM | [9] > 100 µM | [10] > 100 µM | [11] > 100 µM | [12] > 100 µM | [13] > 100 µM | [14] > 100 µM | [15] > 100 µM | [16] > 100 µM

O=C(Cc1ccccc1)NN1C(=O)C(Cl)C1c1ccccc1O (stereo not given)
inactive: [1] 16.8 µM | [3] 21.4 µM | [4] 3.17 µM | [5] 5.56 µM | [7] 3.22 µM | [17] 10 µM | [8] 2.64 µM | [9] 15.4 µM | [11] 20.3 µM | [12] 16.9 µM | [13] 34.8 µM | [14] 15.8 µM | [15] 45.3 µM | [16] 19.5 µM

Cn1cc(C(=O)C[n+]2ccccc2)c2ccccc21
inactive: [1] > 100 µM | [2] 28.9 µM | [3] 50.6 µM | [4] 61.9 µM | [5] > 100 µM | [6] 50.2 µM | [7] 54.7 µM | [17] 12.5 µM | [8] 20.9 µM | [9] 38.4 µM | [10] 78.3 µM | [12] 52.8 µM | [13] 69.2 µM | [14] > 100 µM | [15] > 100 µM | [16] > 100 µM

Oc1c(Cl)c2nccnc2c2ccccc12
inactive: [1] > 100 µM | [2] > 100 µM | [3] > 100 µM | [4] > 100 µM | [5] > 100 µM | [6] > 100 µM | [7] > 100 µM | [17] > 100 µM | [8] > 100 µM | [9] > 100 µM | [10] > 100 µM | [11] > 100 µM | [13] > 100 µM | [14] > 100 µM | [15] > 100 µM | [16] > 100 µM

N#C[C@]12CC3(CC[C@H]1CC1(C2)OCCO1)OCCO3
inactive: [1] > 100 µM | [2] > 100 µM | [3] > 100 µM | [4] > 100 µM | [5] > 100 µM | [6] > 100 µM | [7] > 100 µM | [17] > 100 µM | [8] > 100 µM | [10] > 100 µM | [11] > 100 µM | [12] > 100 µM | [13] > 100 µM | [14] > 100 µM | [15] > 100 µM | [16] > 100 µM

O=C(c1ccccc1)C1OC12C(=O)Nc1c(Cl)cc(Cl)cc12 (stereo not given)
inactive: [1] 16.3 µM | [2] > 92 µM | [3] > 64.9 µM | [4] 8.65 µM | [5] 23.7 µM | [6] > 100 µM | [7] 10.2 µM | [17] 5.6 µM | [8] 60.3 µM | [9] 47.2 µM | [10] 45.8 µM | [11] > 53 µM | [12] 66.2 µM | [13] 7.87 µM | [14] 16.1 µM | [15] > 94.4 µM | [16] 29.9 µM

Cc1[nH]c2ccccc2c1C(=O)CC1(O)C(=O)Nc2c(Cl)cc(Cl)cc21 (stereo not given)
inactive: [1] 26.8 µM | [2] 33 µM | [3] 36.1 µM | [4] 20.3 µM | [5] 35.1 µM | [6] 61.9 µM | [7] 22.1 µM | [17] 18.8 µM | [8] 16.6 µM | [9] 19.5 µM | [10] 26.4 µM | [11] 72.3 µM | [12] 41.3 µM | [13] 27.9 µM | [14] 22.2 µM | [15] 39.4 µM

COc1ccc2nc3cc(Cl)ccc3c(SCC(=O)Nc3ccccc3-c3ccccc3NC(=O)CSc3c4ccc(Cl)cc4nc4ccc(OC)cc34)c2c1
inactive: [1] > 100 µM | [2] > 100 µM | [3] > 100 µM | [4] > 100 µM | [5] > 100 µM | [6] > 100 µM | [7] > 100 µM | [17] > 100 µM | [8] > 100 µM | [9] > 100 µM | [10] > 100 µM | [11] > 100 µM | [12] > 100 µM | [13] > 100 µM | [14] > 100 µM | [15] > 100 µM | [16] > 100 µM

Cc1cc(Cc2cc(C)c(NC(=O)C(=O)C3C(=O)NC(=S)NC3=O)c(C(C)C)c2)cc(C(C)C)c1NC(=O)C(=O)C1C(=O)NC(=S)NC1=O
inactive: [1] > 100 µM | [2] > 100 µM | [3] > 100 µM | [4] > 100 µM | [5] > 100 µM | [6] > 100 µM | [7] > 100 µM | [17] > 100 µM | [8] > 100 µM | [9] > 100 µM | [11] > 100 µM | [12] > 100 µM | [13] > 100 µM | [14] > 100 µM | [15] > 100 µM | [16] > 100 µM

Cc1cccc(-c2cc(=O)c3cc(C)c(C)c(C(=O)O)c3o2)c1
inactive: [1] > 100 µM | [3] > 100 µM | [4] > 100 µM | [5] > 100 µM | [6] > 100 µM | [7] > 100 µM | [17] > 100 µM | [8] > 100 µM | [9] > 100 µM | [10] > 100 µM | [11] > 100 µM | [12] > 100 µM | [13] > 100 µM | [14] > 100 µM | [15] > 100 µM | [16] > 100 µM

O=C1NC(=O)c2c1n(Cc1ccccc1)c(=O)n2Cc1ccccc1
inactive: [1] > 100 µM | [2] 30.4 µM | [3] > 100 µM | [4] > 100 µM | [5] > 100 µM | [6] > 100 µM | [7] > 100 µM | [17] > 100 µM | [8] > 100 µM | [9] > 100 µM | [10] 36 µM | [11] > 100 µM | [12] > 100 µM | [13] > 100 µM | [14] > 100 µM | [15] 96.6 µM | [16] 84.3 µM

C[N+]1=c2c3cccc4cccc(c(=O)n2CCC1)c43
inactive: [1] 35.9 µM | [2] 18.5 µM | [3] 32.2 µM | [4] 3.13 µM | [5] 16.1 µM | [6] 31 µM | [7] 19.9 µM | [17] 18.4 µM | [8] 22.9 µM | [9] 40.4 µM | [10] 30.8 µM | [11] 27.5 µM | [13] 25.1 µM | [14] 25.2 µM | [15] 14.6 µM | [16] 18.7 µM

Cc1ccc(S(=O)(=O)Nc2cccc(C)c2C)cc1
inactive: [1] > 100 µM | [2] > 100 µM | [3] 59.6 µM | [4] 40.5 µM | [5] 49.1 µM | [6] 52.7 µM | [7] 45.5 µM | [17] 56.4 µM | [8] 34 µM | [9] 33.7 µM | [10] > 100 µM | [11] 56.9 µM | [12] > 100 µM | [13] 22.5 µM | [14] 86.7 µM | [15] 65.3 µM | [16] 66.1 µM

COC(=O)c1c(O)ccc(O)c1C(C(C)=O)C(C)=O
inactive: [1] > 100 µM | [2] > 100 µM | [3] > 100 µM | [4] > 100 µM | [5] > 100 µM | [6] > 100 µM | [7] > 100 µM | [8] > 100 µM | [9] > 100 µM | [10] > 100 µM | [11] > 100 µM | [12] > 100 µM | [13] > 100 µM | [14] > 100 µM | [15] > 100 µM | [16] 96.6 µM

Cc1noc2c1C(=O)CCC2
inactive: [1] > 100 µM | [4] > 100 µM | [5] > 100 µM | [7] > 100 µM | [17] > 100 µM | [8] > 100 µM | [10] > 100 µM | [11] > 100 µM | [13] > 100 µM | [14] > 100 µM | [15] > 100 µM | [16] > 100 µM

CCOC(=O)c1[nH]c(CN(C)Cc2[nH]c(C(=O)OCC)c(C)c2C(=O)OCc2ccccc2)c(C(=O)OCc2ccccc2)c1C
inactive: [1] 11.2 µM | [2] 15 µM | [3] 16.6 µM | [4] > 100 µM | [5] 7 µM | [6] 7.45 µM | [7] > 100 µM | [17] 12.7 µM | [8] 10.4 µM | [9] 19.3 µM | [10] 8.47 µM | [12] 12.9 µM | [13] 3.3 µM | [14] 12.7 µM | [15] 16.7 µM | [16] 20.4 µM

CNC1=Nc2ccc(Cl)cc2C(c2ccccc2)=NN1C
inactive: [1] 54.7 µM | [2] 91.2 µM | [3] > 100 µM | [4] 83.8 µM | [5] 66.7 µM | [6] > 100 µM | [7] 36.2 µM | [17] > 100 µM | [8] 45.4 µM | [9] 84.7 µM | [10] > 100 µM | [12] > 100 µM | [13] 23.4 µM | [14] > 100 µM | [15] 84.3 µM | [16] > 100 µM
